Results from US7932241B2, “Pharmaceutical products comprising bisphosphonates” (Novartis AG, priority 2003, dated 2011).

Test: physchem
Settings: pKa values
Experimental: Each 800 g of this solution (equivalent to 50 mg of zoledronic acid) are titrated with • (a) a solution of 0.500 g/100 mL trisodium citrate dihydrate in water for injection • (b) a solution of 0.500 g/100 mL anhydrous sodium acetate in water for injection • (c) a solution of 0.500 g/100 mL disodium tartrate dihydrate in water for injection • (d) a solution of 0.500 g/100 mL trisodium phosphate hexahydrate in water for injection • (e) a solution of 0.400 g/100 mL sodium hydroxide in water for injection
The pH value after each addition of 200 μL of base solution is recorded potentiometrically.

O=P(O)(O)C(O)(Cn1ccnc1)P(=O)(O)O [zoledronic acid, 2-(imidazol-1yl)-1-hydroxyethane-1,1-diphosphonic acid]
pKa: 5.9
